Data from patent US12472170B2, “Use of glutamate 2B receptor antagonists and sigma receptor agonists as antitussives” (Seyltx, Inc., priority 2019, dated 2025).
“And” between values parts separate entries of the source, which are not always exact repeats. Equal values may be shown once.

Test system: citric acid (1M) evoked cough in guinea pigs
Experiment: Citric acid (1M) aerosol-evoked coughs and sneezes in conscious guinea pigs after oral pre-treatment
Format: in vivo, Male Dunkin Hartley guinea pigs
Procedure: The guinea pig species used in one study was twenty four Male Dunkin Hartley guinea pigs, each weighing between 300 and 350 g, which were supplied by Marshall Bioresources Ltd, UK.
A test compound, Ifenprodil, and Gefapixant (in powder form) were prepared and formulated by initially adding 100% propylene glycol at the required volume for the final treatment buffer. The additional buffer ingredients were added in a stepwise fashion, initially solutol and then captisol. Each ingredient was added in a volume equivalent to that which is required for the final volume of treatment buffer for the stock formulation.
In particular, for Gefapixant, this was 0.7 mg/mL, a concentration that delivers 3.5 mg/Kg in a dose volume of 5 mL/Kg. For Ifenprodil, this was 0.3 mg/mL, a concentration that delivers 1.5 mg/Kg in a dose volume of 5 mL/Kg.
Prior to the addition of each buffer ingredient, the test compound formulations were sonicated for 15 min using a Branson 1510 Sonicator. Afterwards, the initial formulation of the test compound and Gefapixant were diluted with a prepared buffer vehicle to provide additional dosing formulations. This was 0.01 to 0.2 mg/ml, preferably 0.06 mg/mL, a dose that delivers 0.3 mg/Kg in a dose volume of 5 mL/Kg.
The final test compound buffer vehicle comprised of 10:10:80 mix of propylene glycol:20% Solutol in PBS:5% Captisol in PBS.
All final test and control formulations were sonicated for 30 min prior to dosing to generate an even suspension or to ensure that the formulation had visibly dissolved.
The animals were first pre-treated (5 mL/Kg, p.o.) with the vehicle, the test compound, or Gefapixant prior to tussive agent (citric acid) exposure, using the amounts set out in Table 1 below. In each case, the route of administration of the treatment was oral.
Animals receiving Gefapixant (3.5 mg/Kg) were dosed 2 hours prior to tussive agent exposure. Animals receiving Ifenprodil (1.5 mg/Kg) were dosed 30 minutes prior to tussive agent exposure.
10 min prior to the tussive evaluation, each animal was individually placed into a purpose built exposure chamber with a supplied airflow through a nebuliser of 2 L/min, and allowed to settle into its new environment.
Following the acclimatisation period, each animal was then exposed for 10 min to an aerosol of 1M citric acid using an ultrasonic nebuliser (Aerogen) set at a nominal liquid consumption rate of 0.6 mL/min.
Coughs and sneezes elicited during the 10 minute aerosol of 1M citric acid, and a subsequent 5 minute observation period, were recorded manually to monitor the animal's welfare. […] The data was analysed for onset of cough, cough numbers and frequency, and sneezes.
The following measurements and assessments were taken for each guinea pig: • Mean total number of coughs evoked in each treatment group • Mean onset of first cough in each group • Mean number of coughs per minute during citric acid exposure in each treatment group
Inter-group deviations were statistically analyzed by a one-way analysis of variance (ANOVA). In the case of significant difference in the mean values among the different levels of treatment, comparisons versus the citric acid vehicle group were carried out using the Dunnett's test. p<0.05 was considered statistically significant.

[1] = Mean of n=6 animals, 10 min Citric acid (1M) exposure, Gefapixant 3.5 mg/Kg p.o., Ifenprodil 1.5 mg/Kg
[2] = Mean of n=6 animals, Post Exposure (5 mins) after 10 min Citric acid (1M), Gefapixant 3.5 mg/Kg p.o., Ifenprodil 1.5 mg/Kg
[3] = Total of n=6 animals, 10 min Citric acid (1M) exposure, Gefapixant 3.5 mg/Kg p.o., Ifenprodil 1.5 mg/Kg
[4] = Total of n=6 animals, Post Exposure (5 mins) after 10 min Citric acid (1M), Gefapixant 3.5 mg/Kg p.o., Ifenprodil 1.5 mg/Kg
[5] = individual animals (ID 1-6), 10 min Citric acid (1M) exposure, Gefapixant 3.5 mg/Kg p.o., Ifenprodil 1.5 mg/Kg
[6] = individual animals (ID 1-6), Post Exposure (5 mins) after 10 min Citric acid (1M), Gefapixant 3.5 mg/Kg p.o., Ifenprodil 1.5 mg/Kg

Structure (SMILES): C[C@@H]([C@H](O)c1ccc(O)cc1)N1CCC(Cc2ccccc2)CC1 (racemic) [Ifenprodil, 4-[2-(4-benzylpiperidin-1-ium-1-yl)-1-hydroxypropyl] phenol; 2,3,4-trihydroxy-4-oxobutanoate]
- Total Coughs, Mean (10 min citric acid (1M) exposure + 5 min post exposure, group mean, n=6): 17.17
- Total Coughs, individual animal (10 min citric acid (1M) exposure + 5 min post exposure, individual animals 1-6): 16 (2×) and 17 and 23 and 19 and 12
- average number of coughs per animal (total number of coughs) (10 min citric acid (1M) exposure + 5 min recovery, Gefapixant 3.5 mg/Kg p.o. 2 hrs prior, Ifenprodil 1.5 mg/Kg p.o. 30 min prior, n=6): 17.17 coughs per animal
- reduction in mean cough frequency vs untreated control (Ifenprodil 1.5 mg/kg (p<0.01), Gefapixant 3.5 mg/kg (p<0.05)): 42%
- Sneezes, Observation Period 0-1, group Mean [1]: 0.2
- Sneezes, Observation Period 1-2, group Mean [1]: 0.5
- Sneezes, Observation Period 2-3, group Mean [1]: 0.3
- Sneezes, Observation Period 3-4, group Mean [1]: 0.3
- Sneezes, Observation Period 4-5, group Mean [1]: 0.5
- Sneezes, Observation Period 5-6, group Mean [1]: 0.3
- Sneezes, Observation Period 6-7, group Mean [1]: 0.7
- Sneezes, Observation Period 7-8, group Mean [1]: 0.5
- Sneezes, Observation Period 8-9, group Mean [1]: 0.0
- Sneezes, Observation Period 9-10, group Mean [1]: 0.0
- Sneezes, Observation Period 10-11, group Mean [2]: 0.0
- Sneezes, Observation Period 11-12, group Mean [2]: 0.0
- Sneezes, Observation Period 12-13, group Mean [2]: 0.0
- Sneezes, Observation Period 13-14, group Mean [2]: 0.0
- Sneezes, Observation Period 14-15, group Mean [2]: 0.0
- Total Sneezes, group Mean (Mean of n=6 animals, whole observation period 0-15 (10 min Citric acid (1M) exposure + Post Exposure 5 mins), Gefapixant 3.5 mg/Kg p.o., Ifenprodil 1.5 mg/Kg): 3.33
- Sneezes, Observation Period 0-1, group Total [3]: 1.0
- Sneezes, Observation Period 1-2, group Total [3]: 3.0
- Sneezes, Observation Period 2-3, group Total [3]: 2.0
- Sneezes, Observation Period 3-4, group Total [3]: 2.0
- Sneezes, Observation Period 4-5, group Total [3]: 3.0
- Sneezes, Observation Period 5-6, group Total [3]: 2.0
- Sneezes, Observation Period 6-7, group Total [3]: 4.0
- Sneezes, Observation Period 7-8, group Total [3]: 3.0
- Sneezes, Observation Period 8-9, group Total [3]: 0.0
- Sneezes, Observation Period 9-10, group Total [3]: 0.0
- Sneezes, Observation Period 10-11, group Total [4]: 0.0
- Sneezes, Observation Period 11-12, group Total [4]: 0.0
- Sneezes, Observation Period 12-13, group Total [4]: 0.0
- Sneezes, Observation Period 13-14, group Total [4]: 0.0
- Sneezes, Observation Period 14-15, group Total [4]: 0.0
- first onset of cough (citric acid (1M) exposure, Gefapixant 3.5 mg/Kg p.o., Ifenprodil 1.5 mg/Kg p.o., group mean, n=6): 59.8 s
- average number of sneezes per animal (citric acid (1M) exposure, Gefapixant 3.5 mg/Kg p.o., Ifenprodil 1.5 mg/Kg p.o., n=6): 3.33 sneezes per animal
- Onset (sec), Mean (citric acid (1M) exposure, group mean, n=6): 59.8 s
- Onset (sec), individual animal (citric acid (1M) exposure, individual animals 1-6): 65 sec and 69 sec and 43 sec (2×) and 72 sec and 67 sec
- Sneezes, Observation Period 0-1 [5]: 0 (5×) and 1
- Sneezes, Observation Period 1-2 [5]: 1 (3×) and 0 (3×)
- Sneezes, Observation Period 2-3 [5]: 0 (4×) and 1 (2×)
- Sneezes, Observation Period 3-4 [5]: 1 (2×) and 0 (4×)
- Sneezes, Observation Period 4-5 [5]: 0 (4×) and 1 and 2
- Sneezes, Observation Period 5-6 [5]: 1 (2×) and 0 (4×)
- Sneezes, Observation Period 6-7 [5]: 1 (4×) and 0 (2×)
- Sneezes, Observation Period 7-8 [5]: 0 (3×) and 1 (3×)
- Sneezes, Observation Period 8-9 [5]: 0
- Sneezes, Observation Period 9-10 [5]: 0
- Sneezes, Observation Period 10-11 [6]: 0
- Sneezes, Observation Period 11-12 [6]: 0
- Sneezes, Observation Period 12-13 [6]: 0
- Sneezes, Observation Period 13-14 [6]: 0
- Sneezes, Observation Period 14-15 [6]: 0
- Total Sneezes (individual animals (ID 1-6), whole observation period 0-15 (10 min Citric acid (1M) exposure + Post Exposure 5 mins), Gefapixant 3.5 mg/Kg p.o., Ifenprodil 1.5 mg/Kg): 4 and 3 (3×) and 5 and 2
- Cough, observation period 0-1, Mean (min 0-1 of citric acid (1M) exposure, group mean, n=6): 0.7
- Cough, observation period 0-1, individual animal (min 0-1 of citric acid (1M) exposure, individual animals 1-6): 0 (3×) and 1 (2×) and 2
- Cough, observation period 0-1, Total (min 0-1 of citric acid (1M) exposure, sum over 6 animals): 4.0
- Cough, observation period 1-2, Mean (min 1-2 of citric acid (1M) exposure, group mean, n=6): 1.5
- Cough, observation period 1-2, individual animal (min 1-2 of citric acid (1M) exposure, individual animals 1-6): 1 (3×) and 2 (3×)
- Cough, observation period 1-2, Total (min 1-2 of citric acid (1M) exposure, sum over 6 animals): 9.0
- Cough, observation period 2-3, Mean (min 2-3 of citric acid (1M) exposure, group mean, n=6): 2.3
- Cough, observation period 2-3, individual animal (min 2-3 of citric acid (1M) exposure, individual animals 1-6): 3 (4×) and 2 and 0
- Cough, observation period 2-3, Total (min 2-3 of citric acid (1M) exposure, sum over 6 animals): 14.0
- Cough, observation period 3-4, Mean (min 3-4 of citric acid (1M) exposure, group mean, n=6): 2.2
- Cough, observation period 3-4, individual animal (min 3-4 of citric acid (1M) exposure, individual animals 1-6): 3 (2×) and 2 (3×) and 1
- Cough, observation period 3-4, Total (min 3-4 of citric acid (1M) exposure, sum over 6 animals): 13.0
- Cough, observation period 4-5, Mean (min 4-5 of citric acid (1M) exposure, group mean, n=6): 2.5
- Cough, observation period 4-5, individual animal (min 4-5 of citric acid (1M) exposure, individual animals 1-6): 3 (4×) and 2 and 1
- Cough, observation period 4-5, Total (min 4-5 of citric acid (1M) exposure, sum over 6 animals): 15.0
- Cough, observation period 5-6, Mean (min 5-6 of citric acid (1M) exposure, group mean, n=6): 2.3
- Cough, observation period 5-6, individual animal (min 5-6 of citric acid (1M) exposure, individual animals 1-6): 2 (4×) and 3 (2×)
- Cough, observation period 5-6, Total (min 5-6 of citric acid (1M) exposure, sum over 6 animals): 14.0
- Cough, observation period 6-7, Mean (min 6-7 of citric acid (1M) exposure, group mean, n=6): 1.3
- Cough, observation period 6-7, individual animal (min 6-7 of citric acid (1M) exposure, individual animals 1-6): 1 (3×) and 2 and 0 and 3
- Cough, observation period 6-7, Total (min 6-7 of citric acid (1M) exposure, sum over 6 animals): 8.0
- Cough, observation period 7-8, Mean (min 7-8 of citric acid (1M) exposure, group mean, n=6): 1.7
- Cough, observation period 7-8, individual animal (min 7-8 of citric acid (1M) exposure, individual animals 1-6): 1 (2×) and 2 (4×)
- Cough, observation period 7-8, Total (min 7-8 of citric acid (1M) exposure, sum over 6 animals): 10.0
- Cough, observation period 8-9, Mean (min 8-9 of citric acid (1M) exposure, group mean, n=6): 1.0
- Cough, observation period 8-9, individual animal (min 8-9 of citric acid (1M) exposure, individual animals 1-6): 0 (2×) and 1 (3×) and 3
- Cough, observation period 8-9, Total (min 8-9 of citric acid (1M) exposure, sum over 6 animals): 6.0
- Cough, observation period 9-10, Mean (min 9-10 of citric acid (1M) exposure, group mean, n=6): 0.8
- Cough, observation period 9-10, individual animal (min 9-10 of citric acid (1M) exposure, individual animals 1-6): 1 (3×) and 0 (2×) and 2
- Cough, observation period 9-10, Total (min 9-10 of citric acid (1M) exposure, sum over 6 animals): 5.0
- Cough, observation period 10-11, Mean (min 10-11, post exposure, group mean, n=6): 0.7
- Cough, observation period 10-11, individual animal (min 10-11, post exposure, individual animals 1-6): 0 (2×) and 1 (4×)
- Cough, observation period 10-11, Total (min 10-11, post exposure, sum over 6 animals): 4.0
- Cough, observation period 11-12, Mean (min 11-12, post exposure, group mean, n=6): 0.2
- Cough, observation period 11-12, individual animal (min 11-12, post exposure, individual animals 1-6): 1 and 0 (5×)
- Cough, observation period 11-12, Total (min 11-12, post exposure, sum over 6 animals): 1.0
- Cough, observation period 12-13, Mean (min 12-13, post exposure, group mean, n=6): 0.0
- Cough, observation period 12-13, individual animal (min 12-13, post exposure, individual animals 1-6): 0
- Cough, observation period 12-13, Total (min 12-13, post exposure, sum over 6 animals): 0.0
- Cough, observation period 13-14, Mean (min 13-14, post exposure, group mean, n=6): 0.0
- Cough, observation period 13-14, individual animal (min 13-14, post exposure, individual animals 1-6): 0
- Cough, observation period 13-14, Total (min 13-14, post exposure, sum over 6 animals): 0.0
- Cough, observation period 14-15, Mean (min 14-15, post exposure, group mean, n=6): 0.0
- Cough, observation period 14-15, individual animal (min 14-15, post exposure, individual animals 1-6): 0
- Cough, observation period 14-15, Total (min 14-15, post exposure, sum over 6 animals): 0.0
- anti-tussive effect (in words) (oral administration, conscious guinea pigs with citric acid): shows efficacy in preventing and/or alleviating coughing
